Test results from US20080009418A1, “Selective Inhibitors” (Alchemia LTD., priority 2004, published 2008).

Legend:
Conditions in all cases: compound at 10 μM
Human Melanocortin (MC3) = molecular target: T1, Human Melanocortin (MC3) (Homo sapiens, UniProt P41968); test: Radioligand binding, human melanocortin MC3 membranes, FlashPlate, [125I]-NDP-αMSH
T1 construct: purchased Perkin Elmer Biosignal
In short: (§1)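 Cloned human receptor membranes were coated onto FlashPlate wells and incubated with radioligand and compound (added from a 0.5 mM DMSO daughter plate) for 1 hour at room temperature in the dark. Scintillation counting gave percent inhibition, with DMSO defining total and reference ligand defining non-specific binding.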

[1] = molecular target: T2, Human melanin-concentrating hormone (MCH1) (Homo sapiens, UniProt Q99705); test: Radioligand binding, human melanin-concentrating hormone MCH1 membranes, FlashPlate, [125I]-S36057
T2 construct: purchased Perkin Elmer Biosignal
T2 sequence (Q99705 whole entry): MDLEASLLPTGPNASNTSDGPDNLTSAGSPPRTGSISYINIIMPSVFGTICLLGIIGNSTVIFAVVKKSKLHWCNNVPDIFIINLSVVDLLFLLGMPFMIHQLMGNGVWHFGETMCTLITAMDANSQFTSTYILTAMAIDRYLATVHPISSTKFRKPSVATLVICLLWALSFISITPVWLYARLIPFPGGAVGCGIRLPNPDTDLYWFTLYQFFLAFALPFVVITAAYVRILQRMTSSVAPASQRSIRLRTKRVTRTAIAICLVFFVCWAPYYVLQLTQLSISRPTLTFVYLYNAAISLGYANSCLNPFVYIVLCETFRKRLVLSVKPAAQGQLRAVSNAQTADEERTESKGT
In short: as §1

Human opioid (ORL1) = molecular target: T3, Human opioid (ORL1) (Homo sapiens, UniProt P41146); test: Radioligand binding, human opioid ORL1 membranes, FlashPlate, [125I]-Nociceptin
T3 construct: purchased Perkin Elmer Biosignal
T3 sequence (P41146 whole entry): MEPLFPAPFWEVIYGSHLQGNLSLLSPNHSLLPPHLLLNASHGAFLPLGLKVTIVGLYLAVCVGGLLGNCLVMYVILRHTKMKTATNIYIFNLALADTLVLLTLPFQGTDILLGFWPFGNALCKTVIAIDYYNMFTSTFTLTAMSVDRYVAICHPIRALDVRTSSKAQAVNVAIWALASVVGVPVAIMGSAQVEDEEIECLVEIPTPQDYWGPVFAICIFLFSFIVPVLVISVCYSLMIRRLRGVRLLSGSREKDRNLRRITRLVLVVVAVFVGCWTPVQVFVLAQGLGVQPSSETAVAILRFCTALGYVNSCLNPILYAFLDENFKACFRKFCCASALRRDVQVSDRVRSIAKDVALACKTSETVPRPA
In short: as §1

Mouse urotensin (mUR2) = molecular target: T4, Mouse urotensin (mUR2) (Mus musculus, UniProt Q8VIH9); test: Radioligand binding, mouse urotensin mUR2 membranes, FlashPlate, [125I]-Urotensin II
T4 construct: purchased Perkin Elmer Biosignal
T4 sequence (Q8VIH9 1-385): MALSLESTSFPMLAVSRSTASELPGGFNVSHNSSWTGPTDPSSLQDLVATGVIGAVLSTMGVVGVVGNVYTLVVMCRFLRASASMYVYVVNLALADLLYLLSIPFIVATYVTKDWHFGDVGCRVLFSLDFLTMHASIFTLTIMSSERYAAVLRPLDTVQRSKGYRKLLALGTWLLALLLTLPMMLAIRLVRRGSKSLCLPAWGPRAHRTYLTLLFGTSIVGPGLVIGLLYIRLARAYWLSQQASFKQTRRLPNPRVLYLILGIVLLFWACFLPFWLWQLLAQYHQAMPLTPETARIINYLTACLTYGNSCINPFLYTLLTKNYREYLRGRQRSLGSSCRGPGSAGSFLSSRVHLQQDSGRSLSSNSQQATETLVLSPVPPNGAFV
In short: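 Cloned mouse urotensin (mUR2) receptor membranes from Perkin Elmer Biosignal were immobilized in FlashPlate microplates using a proprietary coating. Each well got 19.5 μl buffer, then 0.5 μl of DMSO, reference ligand, or compound. Adding 5 μl of [125I]-Urotensin II, diluted to 5× final concentration in binding buffer, started binding. Plates were sealed with TopSeal-A and incubated 1 hour at room temperature in the dark. Wells were counted for 30 seconds each on a TopCount after a 60-second delay, and percentage inhibition was calculated.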

Human Melanocortin (MC4) = molecular target: T5, Human Melanocortin (MC4) (Homo sapiens, UniProt P32245); test: Radioligand binding, human melanocortin MC4 membranes, FlashPlate, [125I]-NDP-αMSH
T5 construct: purchased Perkin Elmer Biosignal
T5 sequence (P32245 whole entry): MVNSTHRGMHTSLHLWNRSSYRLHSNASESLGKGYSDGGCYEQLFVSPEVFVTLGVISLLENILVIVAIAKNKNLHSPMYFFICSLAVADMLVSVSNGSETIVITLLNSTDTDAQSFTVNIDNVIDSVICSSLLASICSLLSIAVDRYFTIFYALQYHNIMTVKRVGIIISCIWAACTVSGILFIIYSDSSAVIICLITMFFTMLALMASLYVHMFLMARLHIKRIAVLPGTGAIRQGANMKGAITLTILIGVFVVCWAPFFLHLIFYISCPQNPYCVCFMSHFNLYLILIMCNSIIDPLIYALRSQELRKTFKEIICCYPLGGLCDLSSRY
In short: as §1

Human δ-opioid (DOP) = molecular target: T6, Human δ-opioid (DOP) (Homo sapiens, UniProt P41143); test: Radioligand binding, human δ-opioid (DOP) membranes, FlashPlate, [3H]-Bremazocine
T6 construct: purchased Perkin Elmer Biosignal
T6 sequence (P41143 whole entry): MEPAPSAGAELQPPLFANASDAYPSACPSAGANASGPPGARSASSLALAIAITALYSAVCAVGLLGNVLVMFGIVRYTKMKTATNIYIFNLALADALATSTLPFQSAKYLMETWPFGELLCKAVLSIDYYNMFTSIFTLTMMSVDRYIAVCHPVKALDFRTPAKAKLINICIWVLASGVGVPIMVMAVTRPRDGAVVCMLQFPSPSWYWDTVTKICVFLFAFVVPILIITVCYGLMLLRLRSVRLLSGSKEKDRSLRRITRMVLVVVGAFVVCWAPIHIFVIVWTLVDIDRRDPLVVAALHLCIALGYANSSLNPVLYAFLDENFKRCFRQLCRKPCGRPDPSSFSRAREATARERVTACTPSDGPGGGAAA
In short: as §1

Human melanocortin (MC5) = molecular target: T7, Human melanocortin (MC5) (Homo sapiens, UniProt P33032); test: Radioligand binding, human melanocortin MC5 membranes, FlashPlate, [125I]-NDP-αMSH
T7 construct: purchased Perkin Elmer Biosignal
T7 sequence (P33032 whole entry): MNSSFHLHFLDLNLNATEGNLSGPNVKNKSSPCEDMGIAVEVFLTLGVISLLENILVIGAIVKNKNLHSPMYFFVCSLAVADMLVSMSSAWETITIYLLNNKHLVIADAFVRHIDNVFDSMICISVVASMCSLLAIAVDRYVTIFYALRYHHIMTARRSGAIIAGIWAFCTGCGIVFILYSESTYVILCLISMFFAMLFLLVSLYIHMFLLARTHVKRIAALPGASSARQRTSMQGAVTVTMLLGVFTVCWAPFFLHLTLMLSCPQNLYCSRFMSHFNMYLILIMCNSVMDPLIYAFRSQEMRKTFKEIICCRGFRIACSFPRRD
In short: as §1

Human κ-Opioid (KOP) = molecular target: T8, Human κ-Opioid (KOP) (Homo sapiens, UniProt P41145); test: Radioligand binding, human κ-opioid (KOP) membranes, filtration, [3H]-Diprenorphine
T8 construct: purchased Perkin Elmer Biosignal
T8 sequence (P41145 whole entry): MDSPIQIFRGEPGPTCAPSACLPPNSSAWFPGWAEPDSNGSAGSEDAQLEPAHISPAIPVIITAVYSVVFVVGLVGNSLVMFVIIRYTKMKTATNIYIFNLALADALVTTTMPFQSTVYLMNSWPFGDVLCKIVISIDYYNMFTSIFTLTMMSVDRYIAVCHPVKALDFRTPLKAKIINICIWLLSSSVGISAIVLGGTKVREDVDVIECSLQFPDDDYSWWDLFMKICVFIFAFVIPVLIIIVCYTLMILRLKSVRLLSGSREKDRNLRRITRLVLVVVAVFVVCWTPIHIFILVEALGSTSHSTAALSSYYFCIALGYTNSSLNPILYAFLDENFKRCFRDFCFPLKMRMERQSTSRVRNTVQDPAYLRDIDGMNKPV
In short: (§2)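 Filtration binding on cloned human receptor membranes (1 Unit/well), [125I]-Substance P for NK1 and [3H]-Diprenorphine for KOP, 1 h at room temperature. Filters PEI-presoaked, washed with cold 50 mM Tris-HCl pH 7.4, counted by scintillation; percent inhibition calculated, reference ligand defining non-specific binding.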

[2] = molecular target: T9, Human neuropeptide Y (NPY-Y1) (Homo sapiens, UniProt P25929); test: Radioligand binding, human neuropeptide Y NPY-Y1 membranes, FlashPlate, [125I]-PYY
T9 construct: purchased Perkin Elmer Biosignal
T9 sequence (P25929 1-384): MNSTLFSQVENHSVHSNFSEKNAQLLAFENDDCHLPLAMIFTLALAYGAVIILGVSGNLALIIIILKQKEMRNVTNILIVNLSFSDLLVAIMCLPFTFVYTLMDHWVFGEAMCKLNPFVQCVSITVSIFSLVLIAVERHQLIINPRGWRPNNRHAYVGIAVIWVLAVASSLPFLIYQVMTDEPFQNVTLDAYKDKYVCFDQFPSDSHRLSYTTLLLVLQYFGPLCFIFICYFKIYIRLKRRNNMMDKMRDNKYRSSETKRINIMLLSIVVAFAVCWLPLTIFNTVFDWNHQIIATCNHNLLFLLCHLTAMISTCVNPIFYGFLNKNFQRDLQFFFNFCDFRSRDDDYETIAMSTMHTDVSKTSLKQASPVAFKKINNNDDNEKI
In short: as §1

Human μ-opioid (MOP) = molecular target: T10, Human μ-opioid (MOP) (Homo sapiens, UniProt P35372); test: Radioligand binding, human μ-opioid (MOP) membranes, FlashPlate, [3H]-Naloxone
T10 construct: purchased Perkin Elmer Biosignal
T10 sequence (P35372 whole entry): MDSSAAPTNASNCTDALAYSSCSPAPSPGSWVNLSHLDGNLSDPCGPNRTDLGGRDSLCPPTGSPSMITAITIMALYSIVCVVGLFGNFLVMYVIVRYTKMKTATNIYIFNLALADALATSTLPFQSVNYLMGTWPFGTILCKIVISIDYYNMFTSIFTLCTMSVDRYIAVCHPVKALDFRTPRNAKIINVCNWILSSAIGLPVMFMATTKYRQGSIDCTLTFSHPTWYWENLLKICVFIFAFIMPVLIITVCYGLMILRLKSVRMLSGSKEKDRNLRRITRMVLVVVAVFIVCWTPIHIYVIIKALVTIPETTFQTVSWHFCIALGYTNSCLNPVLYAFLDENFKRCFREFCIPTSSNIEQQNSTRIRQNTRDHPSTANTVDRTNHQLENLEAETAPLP
In short: as §1

Human neurokinin (NK1) = molecular target: T11, Human neurokinin (NK1) (Homo sapiens, UniProt P25103); test: Radioligand binding, human neurokinin NK1 membranes, filtration, [125I]-Substance P
T11 construct: purchased Perkin Elmer Biosignal
T11 sequence (P25103 whole entry): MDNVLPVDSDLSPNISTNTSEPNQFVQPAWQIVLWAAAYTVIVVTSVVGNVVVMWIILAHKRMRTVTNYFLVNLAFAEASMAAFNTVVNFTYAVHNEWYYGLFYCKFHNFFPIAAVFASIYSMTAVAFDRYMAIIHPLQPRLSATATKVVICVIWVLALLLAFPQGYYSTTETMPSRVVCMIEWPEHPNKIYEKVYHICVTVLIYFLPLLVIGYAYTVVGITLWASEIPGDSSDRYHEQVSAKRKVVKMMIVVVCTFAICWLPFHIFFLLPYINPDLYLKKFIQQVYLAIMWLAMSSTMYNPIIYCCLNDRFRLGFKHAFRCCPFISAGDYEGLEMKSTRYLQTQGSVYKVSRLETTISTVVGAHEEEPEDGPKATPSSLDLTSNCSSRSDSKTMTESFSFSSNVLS
In short: as §2

[3] = [125I]-Urotensin II, mouse mUR2 membranes
[4] = [3H]-Bremazocine, human DOP membranes
[5] = [125I]-NDP-αMSH, human MC5 membranes
[6] = [3H]-Diprenorphine, human KOP membranes
[7] = [125I]-PYY, human NPY-Y1 membranes
[8] = [3H]-Naloxone, human MOP membranes
[9] = [125I]-Substance P, human NK1 membranes

T1 sequence (P41968 whole entry): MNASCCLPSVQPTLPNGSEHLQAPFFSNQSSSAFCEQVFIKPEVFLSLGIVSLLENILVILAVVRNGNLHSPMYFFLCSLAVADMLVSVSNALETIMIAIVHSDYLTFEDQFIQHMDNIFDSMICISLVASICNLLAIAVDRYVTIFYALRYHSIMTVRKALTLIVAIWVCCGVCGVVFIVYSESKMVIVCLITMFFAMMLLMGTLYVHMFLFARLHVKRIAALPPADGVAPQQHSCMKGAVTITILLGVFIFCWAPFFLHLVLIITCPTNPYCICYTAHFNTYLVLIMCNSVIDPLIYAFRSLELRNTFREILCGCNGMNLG

Compound: N=C(N)NCC(=O)NC1C(OCc2ccc(-c3ccccc3)cc2)OC(COCc2ccc3ccccc3c2)C(O)C1OCc1ccc(-c2ccccc2)cc1 (stereo not shown) [compound 405]
- A3: inhibition of radioligand binding (Human Melanocortin (MC3); [125I]-NDP-αMSH, human MC3 membranes): + (“+” indicates greater than 50% inhibition at 10 μM)
- A6: inhibition of radioligand binding ([1]; [125I]-S36057, human MCH1 membranes): − (“−” indicates less than 50% inhibition at 10 μM)
- A10: inhibition of radioligand binding (Human opioid (ORL1); [125I]-Nociceptin, human ORL1 membranes): − (“−” indicates less than 50% inhibition at 10 μM)
- A11: inhibition of radioligand binding (Mouse urotensin (mUR2); [3]): − (“−” indicates less than 50% inhibition at 10 μM)
- A4: inhibition of radioligand binding (Human Melanocortin (MC4); [125I]-NDP-αMSH, human MC4 membranes): − (“−” indicates less than 50% inhibition at 10 μM)
- A1: inhibition of radioligand binding (Human δ-opioid (DOP); [4]): − (“−” indicates less than 50% inhibition at 10 μM)
- A5: inhibition of radioligand binding (Human melanocortin (MC5); [5]): + (“+” indicates greater than 50% inhibition at 10 μM)
- A2: inhibition of radioligand binding (Human κ-Opioid (KOP); [6]): − (“−” indicates less than 50% inhibition at 10 μM)
- A9: inhibition of radioligand binding [2, 7]: − (“−” indicates less than 50% inhibition at 10 μM)
- A7: inhibition of radioligand binding (Human μ-opioid (MOP); [8]): − (“−” indicates less than 50% inhibition at 10 μM)
- A8: inhibition of radioligand binding (Human neurokinin (NK1); [9]): + (“+” indicates greater than 50% inhibition at 10 μM)

Compound: NCCCC(=O)NC1C(OCc2ccc3ccccc3c2)OC(COCc2ccc3ccccc3c2)C(O)C1OCc1ccccc1 (stereo not shown) [compound 396]
- A3: inhibition of radioligand binding (Human Melanocortin (MC3); [125I]-NDP-αMSH, human MC3 membranes, 10 µM): + (“+” indicates greater than 50% inhibition at 10 μM)
- A6: inhibition of radioligand binding ([1]; [125I]-S36057, human MCH1 membranes, 10 µM): − (“−” indicates less than 50% inhibition at 10 μM)
- A10: inhibition of radioligand binding (Human opioid (ORL1); [125I]-Nociceptin, human ORL1 membranes, 10 µM): − (“−” indicates less than 50% inhibition at 10 μM)
- A11: inhibition of radioligand binding (Mouse urotensin (mUR2); [3]): − (“−” indicates less than 50% inhibition at 10 μM)
- A4: inhibition of radioligand binding (Human Melanocortin (MC4); [125I]-NDP-αMSH, human MC4 membranes, 10 µM): + (“+” indicates greater than 50% inhibition at 10 μM)
- A1: inhibition of radioligand binding (Human δ-opioid (DOP); [4]): − (“−” indicates less than 50% inhibition at 10 μM)
- A5: inhibition of radioligand binding (Human melanocortin (MC5); [5]): + (“+” indicates greater than 50% inhibition at 10 μM)
- A2: inhibition of radioligand binding (Human κ-Opioid (KOP); [6]): − (“−” indicates less than 50% inhibition at 10 μM)
- A9: inhibition of radioligand binding [2, 7]: − (“−” indicates less than 50% inhibition at 10 μM)
- A7: inhibition of radioligand binding (Human μ-opioid (MOP); [8]): − (“−” indicates less than 50% inhibition at 10 μM)
- A8: inhibition of radioligand binding (Human neurokinin (NK1); [9]): + (“+” indicates greater than 50% inhibition at 10 μM)

Compound: COC[C@H]1OC(OCc2ccccc2)[C@H](NC(=O)CCCN)[C@@H](OCc2ccc3ccccc3c2)[C@@H]1O (stereo partly shown) [compound 26]
- A3 radioligand binding inhibition (Human Melanocortin (MC3); human melanocortin MC3 membranes): − (“−” indicates less than 50% inhibition at 10 μM)
- A6 radioligand binding inhibition ([1]; human MCH1 membranes): − (“−” indicates less than 50% inhibition at 10 μM)
- A10 radioligand binding inhibition (Human opioid (ORL1); human ORL1 membranes): − (“−” indicates less than 50% inhibition at 10 μM)
- A11 radioligand binding inhibition (Mouse urotensin (mUR2); mouse urotensin mUR2 membranes): − (“−” indicates less than 50% inhibition at 10 μM)
- A4 radioligand binding inhibition (Human Melanocortin (MC4); human melanocortin MC4 membranes): − (“−” indicates less than 50% inhibition at 10 μM)
- A1 radioligand binding inhibition (Human δ-opioid (DOP); human δ-opioid (DOP) membranes): − (“−” indicates less than 50% inhibition at 10 μM)
- A5 radioligand binding inhibition (Human melanocortin (MC5); human melanocortin MC5 membranes): − (“−” indicates less than 50% inhibition at 10 μM)
- A2 radioligand binding inhibition (Human κ-Opioid (KOP); human κ-opioid (KOP) membranes): − (“−” indicates less than 50% inhibition at 10 μM)
- A9 radioligand binding inhibition ([2]; human NPY-Y1 membranes): − (“−” indicates less than 50% inhibition at 10 μM)
- A7 radioligand binding inhibition (Human μ-opioid (MOP); human μ-opioid (MOP) membranes): − (“−” indicates less than 50% inhibition at 10 μM)
- A8 radioligand binding inhibition (Human neurokinin (NK1); human neurokinin NK1 membranes): + (“+” indicates greater than 50% inhibition at 10 μM)

Compound: COCC1OC(OCCc2ccccc2)C(NC(=O)CCCNC(=N)N)C(OCc2ccccc2)C1O (stereo not shown) [compound 218]
- A3: inhibition of radioligand binding (Human Melanocortin (MC3); [125I]-NDP-αMSH, FlashPlate): − (“−” indicates less than 50% inhibition at 10 μM)
- A6: inhibition of radioligand binding ([1]; [125I]-S36057, FlashPlate): − (“−” indicates less than 50% inhibition at 10 μM)
- A10: inhibition of radioligand binding (Human opioid (ORL1); [125I]-Nociceptin, FlashPlate): − (“−” indicates less than 50% inhibition at 10 μM)
- A11: inhibition of radioligand binding (Mouse urotensin (mUR2); [125I]-Urotensin II, FlashPlate): − (“−” indicates less than 50% inhibition at 10 μM)
- A4: inhibition of radioligand binding (Human Melanocortin (MC4); [125I]-NDP-αMSH, FlashPlate): − (“−” indicates less than 50% inhibition at 10 μM)
- A1: inhibition of radioligand binding (Human δ-opioid (DOP); [3H]-Bremazocine, FlashPlate): − (“−” indicates less than 50% inhibition at 10 μM)
- A5: inhibition of radioligand binding (Human melanocortin (MC5); [125I]-NDP-αMSH, FlashPlate): − (“−” indicates less than 50% inhibition at 10 μM)
- A2: inhibition of radioligand binding (Human κ-Opioid (KOP); [3H]-Diprenorphine, filtration): − (“−” indicates less than 50% inhibition at 10 μM)
- A9: inhibition of radioligand binding ([2]; [125I]-PYY, FlashPlate): − (“−” indicates less than 50% inhibition at 10 μM)
- A7: inhibition of radioligand binding (Human μ-opioid (MOP); [3H]-Naloxone, FlashPlate): − (“−” indicates less than 50% inhibition at 10 μM)
- A8: inhibition of radioligand binding (Human neurokinin (NK1); [125I]-Substance P, filtration): + (“+” indicates greater than 50% inhibition at 10 μM)

Compound: CSC1OC(COCc2ccccc2)C(O)C(OCc2ccc3ccccc3c2)C1NC(=O)CCNC(=N)N (stereo not shown) [compound 303]
- A3: inhibition of radioligand binding, human melanocortin (MC3) (Human Melanocortin (MC3); [125I]-NDP-αMSH): − (“−” indicates less than 50% inhibition at 10 μM)
- A6: inhibition of radioligand binding, human melanin-concentrating hormone (MCH1) ([1]; [125I]-S36057): − (“−” indicates less than 50% inhibition at 10 μM)
- A10: inhibition of radioligand binding, human opioid (ORL1) (Human opioid (ORL1); [125I]-Nociceptin): − (“−” indicates less than 50% inhibition at 10 μM)
- A11: inhibition of radioligand binding, mouse urotensin (mUR2) (Mouse urotensin (mUR2); [125I]-Urotensin II): − (“−” indicates less than 50% inhibition at 10 μM)
- A4: inhibition of radioligand binding, human melanocortin (MC4) (Human Melanocortin (MC4); [125I]-NDP-αMSH): + (“+” indicates greater than 50% inhibition at 10 μM)
- A1: inhibition of radioligand binding, human δ-opioid (DOP) (Human δ-opioid (DOP); [3H]-Bremazocine): − (“−” indicates less than 50% inhibition at 10 μM)
- A5: inhibition of radioligand binding, human melanocortin (MC5) (Human melanocortin (MC5); [125I]-NDP-αMSH): + (“+” indicates greater than 50% inhibition at 10 μM)
- A2: inhibition of radioligand binding, human κ-opioid (KOP) (Human κ-Opioid (KOP); [3H]-Diprenorphine): − (“−” indicates less than 50% inhibition at 10 μM)
- A9: inhibition of radioligand binding, human neuropeptide Y (NPY-Y1) ([2]; [125I]-PYY): − (“−” indicates less than 50% inhibition at 10 μM)
- A7: inhibition of radioligand binding, human μ-opioid (MOP) (Human μ-opioid (MOP); [3H]-Naloxone): − (“−” indicates less than 50% inhibition at 10 μM)
- A8: inhibition of radioligand binding, human neurokinin (NK1) (Human neurokinin (NK1); [125I]-Substance P): + (“+” indicates greater than 50% inhibition at 10 μM)
